# Measurements from article PMC12662848 (Cancer Chemotherapy and Pharmacology, 2025).
# Where two headings read alike, the source gives them in different places.
# Key:
# [1] = Venetoclax plasma PK in combination with enzalutamide (LC–MS/MS, non-compartmental); assay type: in vivo, human; details: for half-life: read-out: D1 t½ (converted); for AUC(0-inf): read-out: D1 AUC0-inf; for Tmax: read-out: D1 Tmax
# Procedure: A volume of 50 μL of the standard, QC, or sample plasma was pipetted into a microfuge tube and 10 μL of internal standard (IS; 500 ng/mL ^2H7-venetoclax) was added to each. Next, 200 μL of acetonitrile was added followed by vortexing for 30 s. Samples were centrifuged at 17,200 × g at room temperature for 10 min. Supernatants were transferred to autosampler vials, followed by injection of 5 μL into the LC–MS/MS system. The LC system consisted of an Exion autosampler with binary pump (Sciex, Framingham, MA, USA), Synergi Polar-RP C18 (4 µm, 2.1 × 50 mm) column kept at 30 °C. The autosampler temperature was also kept at 10 °C. Mobile phase solvent A consisted of 0.1% formic acid in water and mobile phase solvent B consisted of 0.1% formic acid in acetonitrile, mixed at 60% B. A. flow rate of 0.4 mL/min between 0–3 min and 1 mL/min from 3–5 min. Retention time of venetoclax was 1.7 min. MS detection was carried out using an ABI SCIEX (Concord, ON, Canada) 4500 tandem mass spectrometer with electrospray ionization in positive multiple reaction monitoring (MRM) mode, monitoring m/z transitions: 868.40 > 836.3 for venetoclax and 875.4 > 643.3 for venetoclax IS. QC based accuracies (N = 6, each of 3 days) were 100.9–106.2%. The intra- and inter-assay precisions were < 10.6% and < 2.4%.
# [2] = test system: AR−/lo LAPC9-CRPC; set-up: method as in PMID 30190514; details: single agent; cited from earlier work
# [3] = set-up: method as in PMID 34416076; details: cited from earlier work
# [4] = Total (N = 10), venetoclax 400–800 mg with enzalutamide 160 mg/d, geometric mean (geometric SD)
# [5] = Total (N = 10), venetoclax 400–800 mg with enzalutamide 160 mg/d, geometric mean (geometric SD), listed as Venetoclax
# [6] = male, human, plasma, oral, 400 mg
# [7] = male, human, plasma, oral, 600 mg
# [8] = male, human, plasma, oral, 800 mg
# [9] = venetoclax 400 mg (N = 3) with enzalutamide 160 mg/d, plasma, geometric mean (geometric SD)
# [10] = venetoclax 600 mg (N = 3) with enzalutamide 160 mg/d, plasma, geometric mean (geometric SD)
# [11] = venetoclax 800 mg (N = 4) with enzalutamide 160 mg/d, plasma, geometric mean (geometric SD)
smiles,measurement,setting,value
CC1(C)CCC(CN2CCN(c3ccc(C(=O)NS(=O)(=O)c4ccc(NCC5CCOCC5)c([N+](=O)[O-])c4)c(Oc4cnc5[nH]ccc5c4)c3)CC2)=C(c2ccc(Cl)cc2)C1 [venetoclax],D1 Cl/F,[1]; [4],approximately 42 L/h
same,D1 Cmax/Dose,[1]; [4],1.54 (1.54) µg/L/mg
same,D1 Tmax,[1]; [4],6.0 (1.3) h
same,D15 Cmin,[1]; [4],188 (2.17) µg/L
same,D1 Cl/F,[1]; [5],42.1 (1.76) L/h
same,D1 t½,[1]; [5],8.9 (1.6) h
same,Ratio D29/D1 (day 29 AUC0–24 over day 1 AUC0-inf),"[1]; Total, venetoclax 400–800 mg with enzalutamide 160 mg/d, geometric mean (geometric SD)",0.77 (2.90)
same,Variability of the ratio of day 29 AUC0–24 over day 1 AUC0-inf,[1]; corresponding to geometric SD 2.90,190 %CV
same,AUC(0-t),"[1]; human, plasma, oral, 800 mg, venetoclax 800 mg with enzalutamide 160 mg/d, plasma, N = 1 on D29, read-out: D29 AUC0-24",8.87 µg·h/mL
same,Cmax,"[1]; human, plasma, oral, 800 mg, venetoclax 800 mg with enzalutamide 160 mg/d, plasma, N = 1 on D29, read-out: D29 Cmax",1 µg/mL
same,Increase in venetoclax apparent clearance,"[1]; in combination with enzalutamide, versus previously reported values",2–threefold
same,clearance,"[1]; male, human, plasma, oral",~700 mL/min
same,AUC(0-t),"[1]; male, human, plasma, oral, 400 mg, venetoclax 400 mg (N = 3) with enzalutamide 160 mg/d, plasma, geometric mean (geometric SD), read-out: D1 AUC0-last",8.02 µg·h/mL
same,Cmax,"[1]; male, human, plasma, oral, 400 mg, venetoclax 400 mg (N = 3) with enzalutamide 160 mg/d, plasma, geometric mean (geometric SD), read-out: D1 Cmax",0.658 µg/mL
same,half-life,"[1]; male, human, plasma, oral, 400 mg, venetoclax 400 mg (N = 3) with enzalutamide 160 mg/d, plasma, geometric mean (geometric SD)",11 h
same,AUC(0-t),"[1]; male, human, plasma, oral, 400 mg, venetoclax 400 mg (N = 3) with enzalutamide 160 mg/d, plasma, geometric mean (geometric SD), read-out: D29 AUC0-24",10.5 µg·h/mL
same,Cmax,"[1]; male, human, plasma, oral, 400 mg, venetoclax 400 mg (N = 3) with enzalutamide 160 mg/d, plasma, geometric mean (geometric SD), read-out: D29 Cmax",0.968 µg/mL
same,AUC(0-inf),[1]; [6],11.1 µg·h/mL
same,Tmax,[1]; [6],5.2 h
same,AUC(0-t),"[1]; male, human, plasma, oral, 600 mg, venetoclax 600 mg (N = 3) with enzalutamide 160 mg/d, plasma, geometric mean (geometric SD), read-out: D1 AUC0-last",12.2 µg·h/mL
same,Cmax,"[1]; male, human, plasma, oral, 600 mg, venetoclax 600 mg (N = 3) with enzalutamide 160 mg/d, plasma, geometric mean (geometric SD), read-out: D1 Cmax",1.17 µg/mL
same,half-life,"[1]; male, human, plasma, oral, 600 mg, venetoclax 600 mg (N = 3) with enzalutamide 160 mg/d, plasma, geometric mean (geometric SD)",6.6 h
same,AUC(0-t),"[1]; male, human, plasma, oral, 600 mg, venetoclax 600 mg (N = 3) with enzalutamide 160 mg/d, plasma, geometric mean (geometric SD), read-out: D29 AUC0-24",9.11 µg·h/mL
same,Cmax,"[1]; male, human, plasma, oral, 600 mg, venetoclax 600 mg (N = 3) with enzalutamide 160 mg/d, plasma, geometric mean (geometric SD), read-out: D29 Cmax",0.554 µg/mL
same,AUC(0-inf),[1]; [7],14.6 µg·h/mL
same,Tmax,[1]; [7],5.6 h
same,AUC(0-t),"[1]; male, human, plasma, oral, 800 mg, venetoclax 800 mg (N = 4) with enzalutamide 160 mg/d, plasma, geometric mean (geometric SD), read-out: D1 AUC0-last",8.76 µg·h/mL
same,Cmax,"[1]; male, human, plasma, oral, 800 mg, venetoclax 800 mg (N = 4) with enzalutamide 160 mg/d, plasma, geometric mean (geometric SD), read-out: D1 Cmax",0.979 µg/mL
same,half-life,"[1]; male, human, plasma, oral, 800 mg, venetoclax 800 mg (N = 4) with enzalutamide 160 mg/d, plasma, geometric mean (geometric SD)",9.4 h
same,AUC(0-inf),[1]; [8],16.6 µg·h/mL
same,Tmax,[1]; [8],6.9 h
same,Cmax,"[1]; male, human, plasma, oral, Total (N = 10), venetoclax 400–800 mg with enzalutamide 160 mg/d, geometric mean (geometric SD), read-out: D1 Cmax",0.917 µg/mL
same,half-life,"[1]; male, human, plasma, oral, Total (N = 10), venetoclax 400–800 mg with enzalutamide 160 mg/d, geometric mean (geometric SD)",~9 h
same,Cmax,"[1]; male, human, plasma, oral, Total, venetoclax 400–800 mg with enzalutamide 160 mg/d, N = 3, 3, and 1 on D29, geometric mean (geometric SD), read-out: D29 Cmax",0.765 µg/mL
same,Ratio D29/D1 (day 29 AUC0–24 over day 1 AUC0-inf),"[1]; venetoclax 400 mg (N = 3) with enzalutamide 160 mg/d, geometric mean (geometric SD)",0.95 (1.99)
same,D1 Cl/F,[1]; [9],36.2 (1.27) L/h
same,D1 Cmax/Dose,[1]; [9],1.64 (1.29) µg/L/mg
same,D15 Cmin,[1]; [9],180 (1.72) µg/L
same,Ratio D29/D1 (day 29 AUC0–24 over day 1 AUC0-inf),"[1]; venetoclax 600 mg (N = 3) with enzalutamide 160 mg/d, geometric mean (geometric SD)",0.62 (5.32)
same,D1 Cl/F,[1]; [10],41.2 (1.65) L/h
same,D1 Cmax/Dose,[1]; [10],1.95 (1.79) µg/L/mg
same,D15 Cmin,[1]; [10],214 (2.30) µg/L
same,D1 Cl/F,[1]; [11],48.1 (2.31) L/h
same,D1 Cmax/Dose,[1]; [11],1.22 (1.50) µg/L/mg
same,D15 Cmin,[1]; [11],177 (2.89) µg/L
same,Ratio D29/D1 (day 29 AUC0–24 over day 1 AUC0-inf),"[1]; venetoclax 800 mg with enzalutamide 160 mg/d, N = 1 on D29",0.79
same,Interpatient variability in Cmin,"[1]; venetoclax, approximated from geometric SD (2.17–1)*100",~117 %CV
same,Intrapatient variability in Cmin,"[1]; venetoclax, from day 8 through 57, across doses",51 %CV
same,Growth of AR−/lo LAPC9-CRPC,[2],greatly inhibited
same,Permeability,[3],low
same,Solubility,[3],low
